Source: patent US11209437B2, “Fluorescent probe and preparation method and use thereof” (Fluorescence Diagnosis (shanghai) Biotech Company Ltd., priority 2016, dated 2021)

Columns and labels:
[1] = Viscosity responsiveness: fluorescence emission spectra of probes in glycerol and methanol; assay type: physicochemical; conditions: for Emission wavelength: excited at maximum excitation wavelength of each probe; for Fluorescence ratio in glycerol to methanol: probe 1×10^−5 M
Experimental: Probes 1 to 98, 101, 103, 105, 107, 109, 111, 114, 117, and 120, and the reference probes 99, 100, 102, 104, 106, 108, 110, 112, 113, 115, 116, 118, 119, 121, BG-CCVJ and BG-Gly-CCVJ were dissolved in dimethyl sulfoxide, respectively, to prepare mother liquors having a concentration of 1×10^−2 M, to each of which glycerol and methanol were added and uniformly mixed, to prepare solutions finally having a concentration of 1×10^−5 M. Depending on the probes, fluorescence emission spectra of the probes were detected successively with the maximum excitation wavelength of each probe under the same conditions, and the results were shown in Table 1.
That is, these probes are sensitive to viscosity changes and have viscosity responsiveness.

[2] = Fluorescence of free probe prior to binding to a protein tag; assay type: physicochemical
Experimental: (§1) Probes were mixed with corresponding protein tags to obtain mixed samples, in which the final probe concentration was 5 μM, and the final protein tag concentration was 10 μM. The mixed samples were incubated 37° C. for 1 hr, fluorescence spectrophotometer was used to detect the change in fluorescence intensity, and the results are shown in Table 1.
(§2) From the quantum yield of probe bound to protein tag, after reacting with the protein tags, the probes of the Examples could be detected to have significant signal enhancement in corresponding excitation transmission channels, the fluorescence activation multiple reached several hundreds to a thousand or more, and the brightness was high, which illustrates that after the probes of the Examples are bound to the protein tags, fluorescence of the probes can be activated, and the probes have good fluorescent molecular switching properties. In contrast, though the fluorescence of the reference probes could also be activated, the quantum yield of activated fluorescence was very low, and the brightness was very poor. In particular, in view of comparison results between probe 98 and reference probe 99, probe 101 and reference probe 102, probe 103 and reference probe 104, probe 105 and reference probe 106, probe 107 and reference probe 108, probe 109 and reference probe 110, probe 111 and reference probe 112, probe 114 and reference probe 115, probe 117 and reference probe 118, probe 120 and reference probe 121 in Table 1, for the same fluorescent dye, when the ligand is connected to the electron donor part of the fluorescent dye, the fluorescence activation brightness of the probe is much higher than the reference probe in which ligand is connected to the electron acceptor part of the fluorescent dye.

SNAP protein tags = target: T1, SNAP protein tags (Homo sapiens, UniProt P16455, A127T/A154D/C150Q/C62A/E30R/G131K/G132T/G153L/K125A/K32I/L33F/M134L/N157G/Q115S/Q116H/R128A/R135S/S151G/S152D/S159E); assay: Fluorescence activation of probe after incubation with corresponding protein tag (SNAP); assay type: biochemical; conditions: probe 5 μM, protein tag 10 μM, 37° C., 1 hr
T1 sequence (P16455 1-182 E30R/K32I/L33F/C62A/Q115S/Q116H/K125A/A127T/R128A/G131K/G132T/M134L/R135S/C150Q/S151G/S152D/G153L/A154D/N157G/S159E): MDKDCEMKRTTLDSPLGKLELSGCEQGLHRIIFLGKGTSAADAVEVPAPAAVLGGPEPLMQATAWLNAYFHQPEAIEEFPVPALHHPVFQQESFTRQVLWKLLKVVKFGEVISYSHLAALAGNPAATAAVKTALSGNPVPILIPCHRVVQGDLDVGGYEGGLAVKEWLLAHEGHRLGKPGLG
Experimental: as §1, §2

| Emission wavelength [1] [nm] | Fluorescence ratio in glycerol to methanol [1] | Quantum yield of free probe [2] | Fluorescence activation multiple (SNAP protein tags) | Quantum yield of probe bound to protein tag (SNAP protein tags) | SMILES |
| --- | --- | --- | --- | --- | --- |
| 649 | 129 | <0.001 | 53 | 0.01 | CN(CCO)c1cc2c(s1)-c1sc(/C=C(/C#N)C(=O)NCc3ccc(COc4nc(N)nc5[nH]cnc45)cc3)cc1C2(C)C [Reference Probe 99, reference compound] |
| 480 | 213 | <0.001 | 43 | 0.011 | CN(C)c1ccc(/C=C(\C#N)C(=O)NCc2ccc(COc3nc(N)nc4[nH]cnc34)cc2)cc1 [Reference Probe 100, reference compound] |
| 480 | 212 | <0.001 | 31 | 0.02 | CN(CCO)c1ccc(/C=C(\C#N)C(=O)NCc2ccc(COc3nc(N)nc4[nH]cnc34)cc2)cc1 [Reference Probe 102, reference compound] |
| 515 | 351 | <0.001 | 23 | 0.02 | N#C/C(=C\c1ccc2c(c1)SCCN2CCO)C(=O)NCc1ccc(COc2nc(N)nc3[nH]cnc23)cc1 [Reference Probe 104, reference compound] |
| 555 | 215 | <0.001 | 62 | 0.01 | CC1=CC(C)(C)N(CCO)c2ccc(/C=C(\C#N)C(=O)NCc3ccc(COc4nc(N)nc5[nH]cnc45)cc3)cc21 [Reference Probe 106, reference compound] |
| 555 | 329 | <0.001 | 30 | 0.02 | CN(CCO)c1cc2sc(/C=C(\C#N)C(=O)NCc3ccc(COc4nc(N)nc5[nH]cnc45)cc3)cc2s1 [Reference Probe 108, reference compound] |
| 567 | 218 | <0.001 | 23 | 0.01 | CN(CCO)c1ccc(C#C/C=C(\C#N)C(=O)NCc2ccc(COc3nc(N)nc4[nH]cnc34)cc2)cc1 [Reference Probe 110, reference compound] |
| 570 | 211 | <0.001 | 41 | 0.01 | CN(CCO)c1ccc2cc(/C=C(\C#N)C(=O)NCc3ccc(COc4nc(N)nc5[nH]cnc45)cc3)sc2c1 [Reference Probe 112, reference compound] |
| 625 | 129 | <0.001 | 36 | 0.01 | CN(C)c1ccc2nc(/C=C(\C#N)C(=O)NCc3ccc(COc4nc(N)nc5[nH]cnc45)cc3)sc2c1 [Reference Probe 113, reference compound] |
| 625 | 113 | <0.001 | 38 | 0.01 | CN(CCO)c1ccc2nc(/C=C(\C#N)C(=O)NCc3ccc(COc4nc(N)nc5[nH]cnc45)cc3)sc2c1 [Reference Probe 115, reference compound] |
| 620 | 125 | <0.001 | 29 | 0.01 | CN(C)c1ccc(-c2ccc(/C=C(\C#N)C(=O)NCc3ccc(COc4nc(N)nc5[nH]cnc45)cc3)s2)cc1 [Reference Probe 116, reference compound] |
| 621 | 158 | <0.001 | 29 | 0.02 | CN(CCO)c1ccc(-c2ccc(/C=C(\C#N)C(=O)NCc3ccc(COc4nc(N)nc5[nH]cnc45)cc3)s2)cc1 [Reference Probe 118, reference compound] |
| 655 | 362 | <0.001 | 15 | 0.01 | CN(C)c1ccc(-c2ccc(/C=C(\C#N)C(=O)NCc3ccc(COc4nc(N)nc5[nH]cnc45)cc3)s2)s1 [Reference Probe 119, reference compound] |
| 655 | 219 | <0.001 | 39 | 0.01 | CN(CCO)c1ccc(-c2ccc(/C=C(\C#N)C(=O)NCc3ccc(COc4nc(N)nc5[nH]cnc45)cc3)s2)s1 [Reference Probe 121, reference compound] |
| 501 | 260 | <0.001 | 170 | 0.02 | N#C/C(=C\c1cc2c3c(c1)CCCN3CCC2)C(=O)NCc1ccc(COc2nc(N)nc3[nH]cnc23)cc1 [Reference Probe BG-CCVJ, reference compound] |
| – | 260 | <0.001 | 60 | – | N#C/C(=C\c1cc2c3c(c1)CCCN3CCC2)C(=O)NCC(=O)NCc1ccc(COc2nc(N)nc3[nH]cnc23)cc1 [Reference Probe BG-Gly-CCVJ, reference compound] |
| 510 | 410 | 0.001 | 146 | 0.15 | CN(CCOC(=O)NCc1ccc(COc2nc(N)nc3[nH]cnc23)cc1)c1ccc(/C=C(\C#N)c2nc3ccccc3o2)cc1 [probe 2] |
| 532 | 399 | 0.0019 | 139 | 0.27 | CN(CCOC(=O)NCc1ccc(COc2nc(N)nc3[nH]cnc23)cc1)c1ccc(/C=C(\C#N)c2nc3ccccc3s2)cc1 [probe 3] |
| 480 | 562 | <0.001 | 490 | 0.35 | CN(CCOC(=O)NCc1ccc(COc2cc(Cl)nc(N)n2)cc1)c1ccc(/C=C(\C#N)C(=O)OC(C)(C)C)cc1 [probe 4] |
| 555 | 790 | <0.001 | 1174 | 0.15 | CN(CCOC(=O)NCc1ccc(COc2cc(Cl)nc(N)n2)cc1)c1ccc(/C=C(\C#N)c2nc3ccccc3o2)cc1 [probe 5] |
| 610 | 1183 | <0.001 | 989 | 0.37 | CN(CCOC(=O)NCc1ccc(COc2cc(Cl)nc(N)n2)cc1)c1ccc(/C=C(\C#N)c2nc3ccccc3s2)cc1 [probe 6] |
| 482 | 655 | <0.001 | 431 | 0.39 | CC(C)(C)OC(=O)/C(C#N)=C/c1ccc(N(CCO)CCOC(=O)NCc2ccc(COc3nc(N)nc4[nH]cnc34)cc2)cc1 [probe 10] |
